# Patent US20230348447A1, “OXAZOLIDINONE COMPOUNDS, LIPOSOME COMPOSITIONS COMPRISING OXAZOLIDINONE COMPOUNDS AND METHOD OF USE THEREOF” (priority 2020, published 2023)
# Like-named read-outs stand apart in the source and are kept apart here.
# Assays:
# M.tb Erdman = test: Broth microdilution MIC with Alamar blue endpoint (MABA) / OD600; format: cell-based, Mycobacterium tuberculosis; details: Mycobacterium tuberculosis
# M.tb H37Rv = test: as above; format: cell-based, Mycobacterium tuberculosis; details: Mycobacterium tuberculosis, H37RV
# M. Tuberculosis Erdman [1] = test: Efficacy of monotherapy in chronic Balb/c model of tuberculosis (lung and spleen CFU); format: in vivo, Mycobacterium tuberculosis (in Balb/c mice)
# [2] = male, Sprague-Dawley, rat, in vivo, po, 50 mg/kg
# [3] = male, Sprague-Dawley, rat, in vivo, 50 mg/kg, 8 weeks
# Protocol: The control group was injected once weekly for 8 weeks with an equal volume of HEPES buffered saline (HBS, pH 7). Before the endpoint of the study animals were humanely euthanized by exsanguination from the abdominal aorta following isoflurane anesthesia. Blood and tissue samples were collected for evaluation of clinical pathology parameters. Representative samples of tissues were collected and preserved in 10% neutral buffered, embedded in paraffin, sectioned, mounted on glass slides, stained with hematoxylin and eosin, and evaluated for histopathology by a board-certified veterinary pathologist.
# The following parameters and end points were also evaluated: mortality and moribundity check, clinical observations, body weights, food consumption, nerve conduction velocity (NCV) and muscle action potential (MAP), functional observation battery (FOB).
# M. Tuberculosis Erdman [4] = details: eight weeks, Balb/c and C3HeB/FeJ mice; cited from earlier work
# in vivo = details: male, Sprague-Dawley, rat
# [5] = Liposome loading / encapsulation efficiency (General protocol); details: HSPC, 5 mol% PEG-lipid, 40-65 mol% Chol; DL0 250 (AKG-28) or 500 (AKG-38)
# [6] = Balb/c mice, 50 mg/kg, q1x5, oral gavage
# [7] = Balb/c mice, 100 mg/kg, q1x5, oral gavage
smiles,measurement,setting,value
CC(=O)NC[C@H]1CN(c2ccc(N3CCOCC3)c(F)c2)C(=O)O1 [Linezolid],MIC,"M.tb Erdman; ERDMAN, read-out: Mycobacterium tuberculosis MIC, Erdman",1 µg/mL
same,MIC,"M.tb Erdman; M. tuberculosis Erdman / H37Rv, strains not separated, read-out: MIC",2 µg/mL
same,MIC,"M.tb H37Rv; as determined in Example 2, read-out: MIC (H37Rv)",1 µg/mL
same,MIC,"M.tb H37Rv; read-out: Mycobacterium tuberculosis MIC, H37Rv",1 µg/mL
same,"Lung Log CFU, 4 week",M. Tuberculosis Erdman [1]; [6],4.61 ± 0.31 Log CFU
same,"Spleen Log CFU, 4 week",M. Tuberculosis Erdman [1]; [6],4.32 ± 0.28 Log CFU
same,"Lung Log CFU, 2 week",M. Tuberculosis Erdman [1]; [7],5.58 ± 0.10 Log CFU
same,"Lung Log CFU, 4 week",M. Tuberculosis Erdman [1]; [7],4.17 ± 0.21 Log CFU
same,"Lung Log CFU, 8 week",M. Tuberculosis Erdman [1]; [7],2.45 ± 0.37 Log CFU
same,"Spleen Log CFU, 2 week",M. Tuberculosis Erdman [1]; [7],4.53 ± 0.25 Log CFU
same,"Spleen Log CFU, 4 week",M. Tuberculosis Erdman [1]; [7],3.90 ± 0.28 Log CFU
same,log10 CFU in lungs,"M. Tuberculosis Erdman [1]; eight weeks, linezolid 100 mg/kg, detection limit 1.13",2.45 log10 CFU
same,"Log10 CFU reduction, lungs","M. Tuberculosis Erdman [1]; two weeks, Ls-AKG28 50 mg/kg twice weekly or 100 mg/kg once weekly, linezolid 100 mg/kg (q1x5)",less than 0.15 Log10 CFU
same,AUC0-inf,[2],373.53 µg·h/mL
same,Clearance,[2],2.231 mL/min/kg
same,T ½,[2],11.86 h
same,Vd,[2],"2,291.26 mL/kg"
same,"Kidney: Vacuolation, mesangial cell, glomerular, Minimal (animals)",[3],0
same,"Kidney: Vacuolation, mesangial cell, glomerular, number of animals with the finding",[3],(0)
same,"Liver: Degeneration, hepatocellular, centrilobular, Mild (animals)",[3],0
same,"Liver: Degeneration, hepatocellular, centrilobular, Minimal (animals)",[3],0
same,"Liver: Degeneration, hepatocellular, centrilobular, number of animals with the finding",[3],(0)
same,"Liver: Single cell necrosis, centrilobular, Minimal (animals)",[3],2
same,"Liver: Single cell necrosis, centrilobular, number of animals with the finding",[3],(2)
same,"Spleen: Accumulation, basophilic material, Mild (animals)",[3],0
same,"Spleen: Accumulation, basophilic material, Minimal (animals)",[3],0
same,"Spleen: Accumulation, basophilic material, number of animals with the finding",[3],(0)
same,"Spleen: Vacuolation, macrophages, Mild (animals)",[3],0
same,"Spleen: Vacuolation, macrophages, Minimal (animals)",[3],0
same,"Spleen: Vacuolation, macrophages, Moderate (animals)",[3],0
same,"Spleen: Vacuolation, macrophages, number of animals with the finding",[3],(0)
same,"log10 CFU counts, monotherapy (Lanoix et al. 2015)",M. Tuberculosis Erdman [4],4-6 log10 CFU
same,Vd,in vivo,2.29 L/kg
same,AUC,"in vivo; po, 50 mg/kg",282 µg·h/mL
same,AUC0-inf,"in vivo; po, 50 mg/kg",374 µg·h/mL
same,AUC(0-t),"in vivo; po, 50 mg/kg",282 µg·h/mL
same,Cmax,"in vivo; po, 50 mg/kg",26700 ng/mL
same,Tmax,"in vivo; po, 50 mg/kg",1 h
same,half-life,"in vivo; po, 50 mg/kg",11.9 h
same,EE,[5],less than 5%
